Literature values, collected in patent US5502059A, “Substituted 1-naphthyl-3-pyrazolecarboxamides which are active on neurotensin, their preparation and pharmaceutical compositions containing them” (Sanofi, priority 1993, dated 1996).

Test system: neurotensin receptors

COc1cccc(OC)c1-c1cc(C(=O)NC2(C(=O)O)C3CC4CC(C3)CC2C4)nn1-c1ccnc2cc(Cl)ccc12 (stereo not shown) [SR 48692, 2-1-(7-chloro-4-quinolyl)-5-(2,6-dimethoxyphenyl)-3pyrazolylcarbonylamino!-2-adamantanecarboxylic acid]
neurotensin-antagonist activity: potent and selective neurotensin-antagonist activity
